pEC50, pIC50: −log10 of the molar value. Converted amounts (≈) assume the structure as drawn.
Key:
HeLa [1] = test: Cytotoxicity against human HeLa cells assessed as cell growth inhibition; type: functional, cell-based
MCF7 = test: Cytotoxicity against human MCF7 cells assessed as cell growth inhibition; type: functional, cell-based
[2] = tested on: Panel NCI-60 (60 carcinoma cell lines); test: Cytotoxicity against human Panel NCI-60 (60 carcinoma cell lines) assessed as cell growth inhibition; type: functional, cell-based
RPMI-8226 = test: Cytotoxicity against human RPMI-8226 cells assessed as cell growth inhibition; type: functional, cell-based
CCRF-CEM = test: Cytotoxicity against human CCRF-CEM cells assessed as cell growth inhibition; type: functional, cell-based
Calf thymus DNA [3] = test: Binding affinity to calf thymus DNA assessed as binding constant by spectrophotometric analysis; type: nucleic-acid assay; conditions: Bos taurus
Calf thymus DNA [4] = test: Stabilization of calf thymus DNA assessed as change in melting temperature; type: nucleic-acid assay; conditions: Bos taurus
[5] = biological target: DNA topoisomerase 1 (Homo sapiens) (UniProt P11387); test: Inhibition of topoisomerase 1 (unknown origin) assessed as relaxation of pBR322 plasmid DNA and incubated for 10 mins
DNA topoisomerase 1 (Homo sapiens), sequence (P11387 whole entry): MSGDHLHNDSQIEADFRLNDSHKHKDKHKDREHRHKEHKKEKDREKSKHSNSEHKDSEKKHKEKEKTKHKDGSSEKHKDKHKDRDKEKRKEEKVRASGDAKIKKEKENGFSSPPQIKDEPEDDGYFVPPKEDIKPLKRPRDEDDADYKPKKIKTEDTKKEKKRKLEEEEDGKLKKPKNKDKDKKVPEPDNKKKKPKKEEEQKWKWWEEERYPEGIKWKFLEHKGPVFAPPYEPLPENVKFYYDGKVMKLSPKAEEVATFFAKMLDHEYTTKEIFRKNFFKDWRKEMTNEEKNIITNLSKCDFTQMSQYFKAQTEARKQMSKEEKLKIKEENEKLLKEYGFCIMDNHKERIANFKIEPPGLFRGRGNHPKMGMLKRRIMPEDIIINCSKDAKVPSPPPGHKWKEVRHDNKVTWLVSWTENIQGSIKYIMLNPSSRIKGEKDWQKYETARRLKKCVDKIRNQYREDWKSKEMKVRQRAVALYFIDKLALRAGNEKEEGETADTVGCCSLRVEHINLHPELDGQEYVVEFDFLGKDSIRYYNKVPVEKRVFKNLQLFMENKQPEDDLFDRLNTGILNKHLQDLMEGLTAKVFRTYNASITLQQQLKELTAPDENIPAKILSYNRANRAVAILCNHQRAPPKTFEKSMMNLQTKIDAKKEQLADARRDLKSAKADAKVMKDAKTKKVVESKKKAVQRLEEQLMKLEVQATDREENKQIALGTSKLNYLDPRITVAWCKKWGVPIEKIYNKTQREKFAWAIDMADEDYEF

[6] = In vivo antitumor activity against mouse Lewis lung carcinoma cells xenografted in mouse model assessed as inhibition of cell growth relative to control; type: functional
A549 [7] = test: Cytotoxicity against human A549 cells assessed as cell growth inhibition by MTT assay; type: functional, cell-based
DU-145 = test: Cytotoxicity against human DU-145 cells assessed as cell growth inhibition by MTT assay; type: functional, cell-based; conditions: pooled result: one value given for 5 cell lines, strains, targets or settings
L1210 [8] = test: Cytotoxicity against mouse L1210 cells assessed as cell growth inhibition; type: functional, cell-based
L5178Y = test: Cytotoxicity against mouse L5178Y cells assessed as cell growth inhibition; type: functional, cell-based
CCRF S-180 = test: Antitumor activity against mouse CCRF S-180 cells allografted in ICR mouse assessed as tumor growth inhibition at 0.1 micromol/kg, iv administered for 7 days relative to control; type: functional; conditions: dose 0.1 µmol/kg, time 7 day
Calu-1 = test: Anti-ferroptotic activity against human Calu-1 cells assessed as cell growth inhibition; type: functional, cell-based
[9] = Anti-ferroptotic activity against human BJeLR cells assessed as cell growth inhibition; type: functional, cell-based
LoVo = test: Cytotoxicity against human LoVo cells assessed as cell growth inhibition; type: functional, cell-based
M14 = test: Anticancer activity against human M14 cells; type: functional
HT-29 [10] = test: Anticancer activity against human HT-29 cells; type: functional
OVCAR-3 [11] = test: Anticancer activity against human OVCAR-3 cells; type: functional
MDA-MB-231 = test: Anticancer activity against human MDA-MB-231 cells; type: functional
UACC-62 = test: Anticancer activity against human UACC-62 cells; type: functional
HOP-92 = test: Anticancer activity against human HOP-92 cells; type: functional
HT-29 [12] = test: Cytotoxicity against human HT-29 cells assessed as inhibition of cell growth measured after 48 hrs by MTT assay; type: functional, cell-based; conditions: HT-29, 48 h
HGC-27 = test: Cytotoxicity against human HGC-27 cells assessed as inhibition of cell growth measured after 48 hrs by MTT assay; type: functional, cell-based; conditions: HGC-27, 48 h
P388 [13] = test: Cytotoxicity against mouse P388 cells assessed as cell growth inhibition and measured after 5 hrs by MTT assay; type: functional, cell-based; conditions: P388, 5 h
HT-29 [14] = test: Cytotoxicity against human HT-29 cells assessed as cell growth inhibition and measured after 5 hrs by MTT assay; type: functional, cell-based; conditions: HT-29, 5 h
A549 [15] = test: Cytotoxicity against human A549 cells assessed as cell growth inhibition and measured after 5 hrs by MTT assay; type: functional, cell-based; conditions: A549, 5 h
[16] = Cytotoxicity against human KB-16 cells assessed as cell growth inhibition and measured after 5 hrs by MTT assay; type: functional, cell-based; conditions: KB16, 5 h
KB = test: Cytotoxicity against human KB cells; type: functional, cell-based
HepG2 = test: Cytotoxicity against human HepG2 cells assessed as cell growth inhibition and measured after 24 hrs by MTT assay; type: functional, cell-based; conditions: HepG2, 24 h
HeLa [17] = test: Cytotoxicity against human HeLa cells assessed as cell growth inhibition and measured after 24 hrs by MTT assay; type: functional, cell-based
A-375 = test: Cytotoxicity against human A-375 cells assessed as cell growth inhibition; type: functional, cell-based
PC-3 = test: Cytotoxicity against human PC-3 cells assessed as cell growth inhibition and measured after 48 hrs; type: functional, cell-based; conditions: PC-3, 48 h
U-251 = test: Cytotoxicity against human U-251 cells assessed as cell growth inhibition and measured after 48 hrs; type: functional, cell-based; conditions: U-251, 48 h
OVCAR-3 [18] = test: Cytotoxicity against human OVCAR-3 cells assessed as cell growth inhibition and measured after 48 hrs; type: functional, cell-based; conditions: OVCAR-3, 48 h
B16 = test: Cytotoxicity against mouse B16 cells assessed as cell growth inhibition by MTT assay; type: functional, cell-based
MT4 = test: Cytotoxicity against human MT4 cells; type: functional; conditions: read-out: ED50 (the source's name)
MOLT-4F = test: Cytotoxicity against human MOLT-4F cells; type: functional; conditions: read-out: ED50 (the source's name)
L1210 [19] = test: Cytotoxicity against mouse L1210 cells; type: functional; conditions: read-out: ED50 (the source's name)
P388 [20] = test: Cytotoxicity against mouse P388 cells; type: functional, cell-based; conditions: read-out: ED50 (the source's name)
[21] = Cytotoxicity against mouse C19 cells assessed as cell growth inhibition by MTT assay; type: functional, cell-based
NCI-H1299 = test: Cytotoxicity against human NCI-H1299 cells assessed as cell growth inhibition; type: functional, cell-based

COc1ccc(-c2c(-c3ccccc3)ncc3[nH]c4ccccc4c23)cc1
pIC50 (HeLa [1]): 4.47 | pIC50 (MCF7): 4.68

COc1ccc(-c2nc(-c3nc4ccc(OC)cc4[nH]3)cc3c2[nH]c2ccccc23)cc1
pIC50 [2]: 5.72 | pIC50 (RPMI-8226): 6.44 | pIC50 (CCRF-CEM): 6.06

NCCCCNC(=O)c1cc2c(cn1)[nH]c1ccccc12
K (Calf thymus DNA [3]): 4.5 10^4/M | ΔTm (Calf thymus DNA [4]): 5.7 °C

Cc1nccc2c1[nH]c1ccccc12
ED50 [5]: 23.8 µg/mL (≈ 131 µM)

CCCCn1c2ccccc2c2ccnc(C(=O)OCCCCCCOC(=O)c3nccc4c5ccccc5n(CCCC)c34)c21
inhibition (INH) [6]: 64.2%

CC(=O)N1N=C(c2ccco2)CC1c1cc2c([nH]c3ccccc32)c(-c2ccc(F)cc2)n1 (stereo not given)
pIC50 (A549 [7]): 5.71 | pIC50 (DU-145): 5.71

CNC(CSC)c1nccc2c1[nH]c1ccc(O)c(Br)c12 (stereo not given)
pIC50 (L1210 [8]; Mus musculus, L1210): 5.74 | pIC50 (L1210 [8]; l1210): 5.62 | pIC50 (L5178Y): 5.74

COc1ccc(-c2nc(-c3nc4ccc(F)cc4[nH]3)cc3c2[nH]c2ccccc23)cc1
pIC50 [2]: 5.72

COc1cccc2c1C(=O)c1c(O)c3c(c(O)c1C2=O)C[C@@](O)(C(=O)CO)C[C@@H]3O[C@H]1C[C@H](N)[C@H](O)[C@H](C)O1.Cl [DOXORUBICIN HYDROCHLORIDE]
TGI (CCRF S-180): 61.1%

COC(=O)c1ccc([C@H]2c3[nH]c4ccccc4c3C[C@H](C(=O)OC)N2C(=O)CCl)cc1
pIC50 (Calu-1): 7.70 | pIC50 [9]: 5.70

CCCCc1nc(C(=O)O)cc2c1[nH]c1ccccc12
pIC50 (LoVo): 4.96

Cn1c2cnccc2c2c(Br)c(O)ccc21
pIC50 (L1210 [8]; Mus musculus, L1210): 6.38 | pIC50 (L1210 [8]; l1210): 6.44 | pIC50 (L5178Y): 6.38

CCN(CC)CCCNc1nccc2c1[nH]c1ccccc12
GI50 (M14): 2000 nM | GI50 (HT-29 [10]): 2700 nM | GI50 (OVCAR-3 [11]): 1600 nM | GI50 (MDA-MB-231): 5200 nM | GI50 (UACC-62): 2300 nM | GI50 (HOP-92): 380 nM

COc1cc(-c2nc(Cn3cc(CN4C(=O)c5ccc(C)cc5C4=O)nn3)cc3c2[nH]c2ccccc23)cc(OC)c1OC
pIC50 (HT-29 [12]): 5.44 | pIC50 (HGC-27): > 5.00

Cc1ccc(C[C@H](N)[C@@H]2NCCc3c2[nH]c2ccc(Br)cc32)cc1
pIC50 (L1210 [8]; Mus musculus, L1210): 5.51 | pIC50 (L1210 [8]; l1210): 5.47 | pIC50 (L5178Y): 5.51

O=C(/C=C/c1cc2c([nH]c3ccccc32)c(-c2ccc(F)cc2)n1)c1ccco1
pIC50 (A549 [7]): 5.73 | pIC50 (DU-145): 5.73

CCN(CC)c1ccc(C2NCCc3c2[nH]c2ccccc32)cc1 (stereo not given)
IC50 (P388 [13]): 0.07 µg/mL (≈ 0.219 µM) | IC50 (HT-29 [14]): 0.07 µg/mL (≈ 0.219 µM) | IC50 (A549 [15]): 0.07 µg/mL (≈ 0.219 µM) | IC50 [16]: 0.07 µg/mL (≈ 0.219 µM)

COC(=O)[C@@H]1Cc2c([nH]c3ccccc23)[C@@H](c2ccccc2)N1
pIC50 [2]: 6.44

O[C@]12C=C(C3=NCCc4c3[nH]c3ccccc43)[C@@H]3CCN(CCCC/C=C\CC1)C[C@@]31C[C@@H]3/C=C\CCCCN3[C@H]12 [3,4-DIHYDROMANZAMINE A]
pIC50 (KB): 6.21 | pIC50 (L1210 [8]; Mus musculus, L1210): 5.32

O=Cc1cc2c([nH]c3ccccc32)c(-c2ccccc2)n1
pIC50 [2]: 6.44

COC(=O)c1cc2c([nH]c3ccccc32)c(-c2ccc(OCc3cn(-c4cccc(Cl)c4Cl)nn3)cc2)n1
pIC50 (HepG2): 4.49 | pIC50 (HeLa [17]): 4.34

Oc1ccc2[nH]c3c(C4=C[C@@]5(O)CC/C=C\CCCCN6CC[C@@H]4[C@]4(C[C@@H]7/C=C\CCCCN7[C@H]45)C6)nccc3c2c1 [MANZAMINE Y]
pIC50 (KB): 5.60 | pIC50 (L1210 [8]; Mus musculus, L1210): 5.82

COc1ccc2nc(-c3cc4c([nH]c5ccccc54)c(-c4ccc(F)c(F)c4)n3)[nH]c2c1
pIC50 [2]: 5.72

COc1cc(-c2nc(C(=O)N[C@@H](Cc3c[nH]c4ccccc34)C(=O)N[C@@H](Cc3c[nH]c4ccccc34)C(=O)N[C@@H](CO)C(=O)OCc3ccccc3)cc3c2[nH]c2ccccc23)ccc1O
TGI (CCRF S-180): 62.9%

c1ccc2c(c1)[nH]c1c(CNCCOCCOCCNCc3nccc4c3[nH]c3ccccc34)nccc12
pIC50 (A-375): 5.70

COc1ccc(-c2nc(C3=N/C(=C\c4ccccc4)C(=O)O3)cc3c2[nH]c2ccccc23)cc1
pIC50 (PC-3): 5.82 | pIC50 (U-251): 6.32 | pIC50 (OVCAR-3 [18]): 5.97

O=C(/C=C/C1Cc2c([nH]c3ccccc23)C(c2ccc(F)cc2)N1)c1ccc(F)cc1 (stereo not given)
pIC50 (A549 [7]): 5.25 | pIC50 (B16): 5.13

NC1CSCON2CCC3c4ccccc4NC3C12 (stereo not given)
pEC50 (MT4): 8.30 | pEC50 (MOLT-4F): 8.30 | pEC50 (L1210 [19]): 8.30 | pEC50 (P388 [20]): 8.30

c1ccc2c(-c3nccc4c3[nH]c3ccccc34)c[nH]c2c1
pIC50 [21]: 4.81

c1ccc2c(c1)[nH]c1cnccc12
ED50 [5]: 34.4 µg/mL (≈ 205 µM)

CCn1c2ccccc2c2cc(C3NCCc4c3[nH]c3ccccc43)ccc21 (stereo not given)
IC50 (P388 [13]): < 0.001 µg/mL | IC50 (HT-29 [14]): < 0.001 µg/mL | IC50 (A549 [15]): < 0.001 µg/mL | IC50 [16]: < 0.001 µg/mL

Fc1ccc(-c2nc(-c3nc4ccc(Cl)cc4[nH]3)cc3c2[nH]c2ccccc23)cc1
pIC50 [2]: 5.72

c1ccc(-c2nc(-c3nc4ccccc4[nH]3)cc3c2[nH]c2ccccc23)cc1
pIC50 [2]: 6.44

c1ccc2c(c1)[nH]c1c(CNCCOCCNCc3nccc4c3[nH]c3ccccc34)nccc12
pIC50 (NCI-H1299): 5.80

COc1ccc2c(c1)C1CCN3OCSCC(N)C3C1N2 (stereo not given)
pEC50 (MT4): > 8.30 | pEC50 (MOLT-4F): > 8.30 | pEC50 (L1210 [19]): > 8.30 | pEC50 (P388 [20]): > 8.30

CC[C@H](C)[C@H](NC(=O)[C@H](Cc1c[nH]c2ccccc12)NC(=O)[C@H](Cc1c[nH]c2ccccc12)NC(=O)c1cc2c([nH]c3ccccc32)c(-c2ccc(O)c(OC)c2)n1)C(=O)OCc1ccccc1
TGI (CCRF S-180): 63.4%

COc1ccccc1-c1c(-c2ccccc2)ncc2[nH]c3ccccc3c12
pIC50 (HeLa [1]): 4.45 | pIC50 (MCF7): 4.45

From ChEMBL document CHEMBL5149976, “β-Carbolines as potential anticancer agents” (Eur J Med Chem, 2021)
